According to patent publication US20200115357A1, “LIVER X RECEPTORS (LXR) MODULATORS” (Phenex-FXR GmbH, priority 2017, published 2020):

Key:
[1] = molecular target: T1, GST-LXRβ ligand-binding domain (Homo sapiens, UniProt P55055, DUP175-175); experiment: TR-FRETβ activity assay (LXRβ-LBD / NCoA3 coactivator peptide, prestimulated with 24(S)-25-epoxycholesterol); format: biochemical; design: key to behavior in FRET assay: ag=agonist; ia=inverse agonist; details: for EC50: 1 μM 24(S)-25-epoxycholesterol as prestimulating agonist, read-out: FRETβ activity range (EC50); for behavior in FRET assay: agonist or inverse agonist
T1 construct: amino acids 156-461; NP009052; made in house; host or cells: E. coli
T1 sequence (P55055 with tags, fused parts or gaps DUP175-175): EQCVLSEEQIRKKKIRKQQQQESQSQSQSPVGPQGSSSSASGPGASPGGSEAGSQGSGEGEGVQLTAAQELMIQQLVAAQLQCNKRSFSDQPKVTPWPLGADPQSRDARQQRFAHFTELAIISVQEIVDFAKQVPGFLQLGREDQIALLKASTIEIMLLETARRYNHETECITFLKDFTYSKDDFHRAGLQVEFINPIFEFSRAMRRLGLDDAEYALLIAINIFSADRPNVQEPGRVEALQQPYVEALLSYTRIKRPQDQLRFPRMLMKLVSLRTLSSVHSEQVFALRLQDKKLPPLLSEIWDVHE
Method: The tested compounds were usually dissolved, tested and stored as 20 mM stock solutions in DMSO. […] Sulfonyl acetic acid derivatives are shelf stable as solid at rt for long time as reported by Griesbrecht et al. (Synlett 2010:374) or Faucher et al. (J. Med. Chem. 2004; 47:18). TR-FRETβ Activity Assay Recombinant GST-LXRβ ligand-binding domain (LBD; amino acids 156-461; NP009052; SEQ ID NO:2) was expressed in E. coli and purified via gluthatione-sepharose affinity chromatography. N-terminally biotinylated NCoA3 coactivator peptide (SEQ ID NO:1) was chemically synthesized (Eurogentec). […] Finally, a detection mix was added containing anti GST-Tb cryptate (CisBio; 610SAXLB) and Streptavidin-XL665 (CisBio; 610SAXLB) as fluorescent donor and acceptor, respectively, as well as the coactivator peptide and LXRβ-LBD protein (SEQ ID NO:2). The reaction was mixed thoroughly, equilibrated for 1 h at 4° C. and vicinity of LXRβ and coactivator peptide was detected by measurement of fluorescence in a VictorX4 multiplate reader (PerkinElmer Life Science) using 340 nm as excitation and 615 and 665 nm as emission wavelengths. Assays were performed in triplicates. Final Assay Concentrations of Components: 240 mM KCl, 1 μg/μL BSA, 0.002% Triton-X-100, […] anti GST-Tb cryptate, 2.5 ng/μL Streptavidin-XL665, coactivator peptide (400 nM), LXRβ protein ([…], i.e. 76 nM)

LXRβ full length (FL) = molecular target: T2, LXRβ full length (FL) (Homo sapiens, UniProt P55055, DUP175-175); experiment: LXR Gal4 reporter transient transfection assay (M2H), Gal4β FL; format: cell-based; details: HEK293 cells; read-out: M2H Gal4β FL activity range (EC50)
T2 construct: the full length (FL) proteins of LXRα (amino acids 1-447); NP005684; NP009052; expressed in transfected cells; host or cells: HEK293
T2 sequence (P55055 with tags, fused parts or gaps DUP175-175): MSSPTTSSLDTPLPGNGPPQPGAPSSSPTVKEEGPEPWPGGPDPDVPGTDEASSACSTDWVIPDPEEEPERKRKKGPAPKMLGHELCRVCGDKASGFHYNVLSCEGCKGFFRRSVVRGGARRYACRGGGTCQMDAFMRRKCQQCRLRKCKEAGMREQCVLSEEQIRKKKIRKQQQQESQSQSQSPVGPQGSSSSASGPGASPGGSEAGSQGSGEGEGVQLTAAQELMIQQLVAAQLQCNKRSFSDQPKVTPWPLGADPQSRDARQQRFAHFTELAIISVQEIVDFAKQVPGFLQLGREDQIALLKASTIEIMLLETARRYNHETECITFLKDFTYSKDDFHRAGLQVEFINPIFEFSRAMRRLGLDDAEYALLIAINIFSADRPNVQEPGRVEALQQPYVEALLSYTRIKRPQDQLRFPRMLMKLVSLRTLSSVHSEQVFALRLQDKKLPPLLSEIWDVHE
Method: (§1) The tested compounds were usually dissolved, tested and stored as 20 mM stock solutions in DMSO. Since sulfonyl acetic acid derivatives tend to decarboxylate under these conditions, these stock solutions were prepared, tested and stored as 20 mM DMSO stock solutions containing 100 mM trifluoroacetic acid (5 equivalents). Sulfonyl acetic acid derivatives are shelf stable as solid at rt for long time as reported by Griesbrecht et al. (Synlett 2010:374) or Faucher et al. (J. Med. Chem. 2004; 47:18).
(§2) LXR Gal4 Reporter Transient Transfection Assays
(§3) LXRα and LXRβ activity status was determined via detection of interaction with coactivator and corepressor proteins in mammalian two-hybrid experiments (M2H). For this, via transient transfection the full length (FL) proteins of LXRα (amino acids 1-447; NP005684; SEQ ID NO:7) or LXRβ-(amino acids 1-461; NP009052; SEQ ID NO:8) or the ligand-binding domains (LBD) of LXRα (amino acids 155-447 SEQ ID NO:3) or LXRβ (amino acids 156-461; SEQ ID NO:4) were expressed from pCMV-AD (Stratagene) as fusions to the transcriptional activation domain of NFkB. As cofactors, domains of either the steroid receptor coactivator 1 (SRC1; amino acids 552-887; SEQ ID NO:5) or of the corepressor NCoR (amino acids 1903-2312 SEQ ID NO:6) were expressed as fusions to the DNA binding domain of the yeast transcription factor GAL4 (from pCMV-BD; Stratagene). Interaction was monitored via activation of a coexpressed Firefly Luciferase Reporter gene under control of a promoter containing repetitive GAL4 response elements (vector pFRLuc; Stratagene). Transfection efficiency was controlled via cotransfection of constitutively active pRL-CMV Renilla reniformis luciferase reporter (Promega). HEK293 cells were grown in minimum essential medium (MEM) with 2 mM L-glutamine and Earle's balanced salt solution supplemented with 8.3% fetal bovine serum, 0.1 mM non-essential amino acids, 1 mM sodium pyruvate, at 37° C. in 5% CO2. 3.5×10^4 cells/well were plated in 96-well cell culture plates in growth medium supplemented with 8.3% fetal bovine serum for 16-20 h to ˜90% confluency. For transfection, medium was taken off and LXR and cofactor expressing plasmids as well as the reporter plasmids are added in 30 μL OPTIMEM/well including polyethylene-imine (PEI) as vehicle. Typical amounts of plasmids transfected/well: pCMV-AD-LXR (5 ng), pCMV-BD-cofactor (5 ng), pFR-Luc (100 ng), pRL-CMV (0.5 ng). Compound stocks were prepared in DMSO, prediluted in MEM to a total volume of 120 μL, and added 4 h after addition of the transfection mixture (final vehicle concentration not exceeding 0.2%). Cells were incubated for additional 16 h, lysed for 10 min in 1× Passive Lysis Buffer (Promega) and Firefly and Renilla luciferase activities were measured sequentially in the same cell extract using buffers containing D-luciferine and coelenterazine, respectively. Measurements of luminescence were done in a BMG-Iuminometer.

LXRα full length (FL) = molecular target: T3, LXRα full length (FL) (Homo sapiens, UniProt Q13133); experiment: LXR Gal4 reporter transient transfection assay (M2H), Gal4α FL; format: cell-based; details: HEK293 cells; read-out: M2H Gal4α FL activity range (EC50)
T3 construct: the full length (FL) proteins of LXRα (amino acids 1-447); NP005684; expressed in transfected cells; host or cells: HEK293
T3 sequence (Q13133 1-447): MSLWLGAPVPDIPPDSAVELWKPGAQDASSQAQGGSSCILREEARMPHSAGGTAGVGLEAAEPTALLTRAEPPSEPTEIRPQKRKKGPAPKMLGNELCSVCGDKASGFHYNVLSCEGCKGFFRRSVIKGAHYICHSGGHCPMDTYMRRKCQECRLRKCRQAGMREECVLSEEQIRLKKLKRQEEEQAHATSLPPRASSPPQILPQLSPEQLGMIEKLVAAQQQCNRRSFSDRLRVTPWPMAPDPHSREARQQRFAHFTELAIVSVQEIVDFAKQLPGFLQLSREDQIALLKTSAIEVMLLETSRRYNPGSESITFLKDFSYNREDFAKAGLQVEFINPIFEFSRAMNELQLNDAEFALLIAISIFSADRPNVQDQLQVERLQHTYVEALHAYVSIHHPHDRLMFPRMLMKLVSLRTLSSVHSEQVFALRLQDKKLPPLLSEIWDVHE
Method: as §1, §2, §3

SMILES	EC50 [1] [nM]	behavior in FRET assay [1]	EC50 (LXRβ full length (FL)) [nM]	EC50 (LXRα full length (FL)) [nM]
Cc1cc(C)c(S(=O)(=O)N(Cc2ccc(-c3cccc(S(=O)(=O)CC(=O)O)c3)cc2)Cc2ccc(C)o2)c(C)c1 [5/5]	> 10000	ia	100 to 1000	1000 to 10000
Cc1cc(F)cc(C)c1S(=O)(=O)N(Cc1ccc(-c2cccc(S(=O)(=O)CC(=O)O)c2)cc1)Cc1ccc(C(F)(F)F)o1 [10/2]	1000 to 10000	ia	100 to 1000	1000 to 10000
O=C(O)CS(=O)(=O)c1cccc(-c2ccc(CN(Cc3ccc(C(F)(F)F)o3)S(=O)(=O)c3c(Cl)cccc3C(F)(F)F)cc2)c1 [10/3]	1000 to 10000	ag	100 to 1000	1000 to 10000
Cc1cc(C)c(S(=O)(=O)N(Cc2ccc(C(F)(F)F)o2)Cc2sc(-c3cccc(C(C)(C)C(=O)O)c3)cc2Cl)c(C)c1 [10/6]	1000 to 10000	ag	< 100	100 to 1000
Cc1cc(C)c(S(=O)(=O)N(Cc2ccc(-c3cccc(C(C)(C)C(=O)O)c3)cc2)c2ccc(C(F)(F)F)o2)c(C)c1 [10/7]	100 to 1000	ag	< 100	100 to 1000
COc1cc(C)cc(C)c1S(=O)(=O)N(Cc1ccc(-c2cccc(S(=O)(=O)CC(=O)O)c2)cc1)Cc1ccc(C(F)(F)F)o1 [10/8]	1000 to 10000	ag	1000 to 10000	1000 to 10000
O=C(O)CS(=O)(=O)c1cccc(-c2ccc(CN(Cc3ccc(C(F)(F)F)o3)S(=O)(=O)c3cccc4ccccc34)cc2)c1 [10/9]	1000 to 10000	ia	100 to 1000	1000 to 10000
COc1ccc(S(=O)(=O)N(Cc2ccc(-c3cccc(S(=O)(=O)CC(=O)O)c3)cc2)Cc2ccc(C(F)(F)F)o2)c2c1CCCC2 [10/10]	1000 to 10000	ia	100 to 1000	100 to 1000
Cc1ccc2cccnc2c1S(=O)(=O)N(Cc1ccc(-c2cccc(S(=O)(=O)CC(=O)O)c2)cc1)Cc1ccc(C(F)(F)F)o1 [10/11]	1000 to 10000	ag	100 to 1000	1000 to 10000
Cc1ccc(S(=O)(=O)N(Cc2ccc(-c3cccc(S(=O)(=O)CC(=O)O)c3)cc2)Cc2ccc(C(F)(F)F)o2)c(C)c1 [10/12]	1000 to 10000	ia	100 to 1000	1000 to 10000
Cc1cc(C)c(S(=O)(=O)N(Cc2ccc(-c3cccc(S(=O)(=O)CC(=O)O)c3)cc2)Cc2ccc(C(F)F)o2)c(C)c1 [10/13]	1000 to 10000	ia	100 to 1000	1000 to 10000
Cc1ccc2ccccc2c1S(=O)(=O)N(Cc1ccc(C(F)(F)F)o1)C1COc2cc(-c3cccc(C(C)(C)C(=O)O)c3)ccc21 (stereo not shown) [10/14]	100 to 1000	ia	< 100	< 100
Cc1ccc2ncccc2c1S(=O)(=O)N(Cc1ccc(-c2cccc(C(C)(C)C(=O)O)c2)cc1)Cc1ccc(C(F)(F)F)o1 [10/15]	< 100	ia	< 100	< 100
Cc1ccc2ccccc2c1S(=O)(=O)N(Cc1ccc(-c2cccc(S(=O)(=O)CC(=O)O)c2)cc1)Cc1cc(C(F)(F)F)co1 [10/16]	> 10000	ia	100 to 1000	1000 to 10000
Cc1ccc2ccccc2c1S(=O)(=O)N(Cc1ccc(-c2cccc(C(C)(C)C(=O)O)c2)cc1)Cc1cc2ccccc2o1 [10/17]	1000 to 10000	ia	< 100	100 to 1000
Cc1sc2ccccc2c1S(=O)(=O)N(Cc1ccc(-c2cccc(C(C)(C)C(=O)O)c2)cc1)Cc1ccc(C(F)(F)F)o1 [10/18]	< 100	ia	< 100	< 100
COc1ccc2cccnc2c1S(=O)(=O)N(Cc1ccc(-c2cccc(C(C)(C)C(=O)O)c2)cc1)Cc1ccc(C(F)(F)F)o1 [10/19]	100 to 1000	ag	< 100	< 100
Cc1nn2cccnc2c1S(=O)(=O)N(Cc1ccc(-c2cccc(C(C)(C)C(=O)O)c2)cc1)Cc1ccc(C(F)(F)F)o1 [10/20]	100 to 1000	ag	< 100	100 to 1000
COc1cccc(CN(Cc2ccc(-c3cccc(S(=O)(=O)CC(=O)O)c3)cc2)S(=O)(=O)c2c(C)cc(C)cc2C)c1 [11/3]	> 10000	ia	1000 to 10000	1000 to 10000
